Six molecules from ChEMBL document CHEMBL1201862, “PubChem BioAssay data set” (2004) can be followed below.

As usually defined, the IC50 is the concentration that inhibits the measured activity by half. Broadly, the EC50 is the concentration needed to bring the measured effect to its halfway point.

Experiment [1] has as its target Signal transducer and activator of transcription 1-alpha/beta (Homo sapiens, UniProt P42224). Nature of the experiment: STAT3 blockade with qPCR and toxicity readouts – cell-based, STAT1 panel, cytotoxicity, late-stage follow-up, panel member STAT1 Inhibition (AID 2078).
Experiment [2] concerns the target Signal transducer and activator of transcription 3 (Homo sapiens, UniProt P40763). Nature of the experiment: STAT3 blockade with qPCR and toxicity readouts – cell-based, STAT1 panel, cytotoxicity, late-stage follow-up, panel member STAT3 Inhibition (AID 2078). For orientation: In qPCR the cycle at which signal appears reflects the starting amount.
The target of experiment [3] is T1, Tyrosine-protein phosphatase non-receptor type 7 (Homo sapiens, UniProt P35236).
T1 sequence (P35236 whole entry): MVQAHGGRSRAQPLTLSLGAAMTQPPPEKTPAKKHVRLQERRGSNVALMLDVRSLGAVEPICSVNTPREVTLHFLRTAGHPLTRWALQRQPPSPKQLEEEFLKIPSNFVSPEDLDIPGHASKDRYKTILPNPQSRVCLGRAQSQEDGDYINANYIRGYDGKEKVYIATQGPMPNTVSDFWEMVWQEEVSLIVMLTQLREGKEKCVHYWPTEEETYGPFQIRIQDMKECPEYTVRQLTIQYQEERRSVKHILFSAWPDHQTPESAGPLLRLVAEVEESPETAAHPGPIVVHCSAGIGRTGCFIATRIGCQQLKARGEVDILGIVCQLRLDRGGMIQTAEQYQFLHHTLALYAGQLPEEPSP
Description: inhibition of hematopoietic tyrosine phosphatase HePTP – biochemical, set 2, SAR follow-up (AID 449736). In kind it is functional.

Experiment [4] deals with T2, Cannabinoid receptor 1 (Homo sapiens, UniProt P21554). Nature of the experiment: SAR analysis of antagonists of the Cannabinoid Receptor 1 using an Image-Based Assay - Set 3. [Related pubchem assays (depositor defined):AID1961, AID1965]. Type of experiment: functional.
Experiment [5] addresses G-protein coupled receptor 55 (Homo sapiens, UniProt Q9Y2T6). Nature of the experiment: SAR analysis of selective Agonists of GPR55 using an Image-Based Assay - Set 2. [Related pubchem assays (depositor defined):AID1961, AID1965]. Type of experiment: functional.
Experiment [6] concerns the target T2, Cannabinoid receptor 1. Description: SAR analysis of agonists of the Cannabinoid Receptor 1 using an Image-Based Assay - Set 3. [Related pubchem assays (depositor defined):AID1961, AID1965]. Type of experiment: functional.
In experiment [7] the target is T3, G-protein coupled receptor 35 (Homo sapiens, UniProt Q9HC97). Nature of the experiment: SAR analysis of Antagonists of the GPR35 Receptor using an Image-Based Assay - Set 4. [Related pubchem assays (depositor defined):[…]]. In kind it is functional.
Experiment [8] concerns the target T4, Cannabinoid receptor 2 (Homo sapiens, UniProt P34972). Nature of the experiment: SAR analysis of antagonists of the Cannabinoid Receptor 2 using an Image-Based Assay - Set 2. [Related pubchem assays (depositor defined):AID1961, AID1965]. Type of experiment: functional.
Experiment [9] has as its target T3, G-protein coupled receptor 35. Nature of the experiment: SAR analysis of Agonists of the GPR35 Receptor using an Image-Based Assay - Set 3. [Related pubchem assays (depositor defined):AID1961, AID1965]. Type of experiment: functional.
For experiment [10], the target named is T4, Cannabinoid receptor 2. Description: SAR analysis of agonists of the Cannabinoid Receptor 2 using an Image-Based Assay - Set 2. [Related pubchem assays (depositor defined):AID1961, AID1965]. In kind it is functional.
The target of experiment [11] is Mu-type opioid receptor (Homo sapiens, UniProt P35372). Description: SAR Analysis of Agonists of the MOR Receptor using an Image-Based Assay - Set 3. [Related pubchem assays (depositor defined):AID1777, AID1785, AID1786, AID1966, AID2133, AID2136, AID2284, AID2285, AID2352]. Type of experiment: functional.
Experiment [12] deals with Delta-type opioid receptor (Homo sapiens, UniProt P41143). Description: SAR Analysis of Agonists of the DOR Receptor using an Image-Based Assay - Set 3. [Related pubchem assays (depositor defined):AID1777, AID1786]. Type of experiment: functional.
For experiment [13], the target named is T5, Kappa-type opioid receptor (Homo sapiens, UniProt P41145). Nature of the experiment: kappa opioid receptor activation by imaging – image-based, set 3, SAR follow-up (AID 488833). In kind it is functional.
Experiment [14] deals with T5, Kappa-type opioid receptor. Description: SAR analysis of small molecule agonists of the kappa opioid receptor via a luminescent beta-arrestin assay - Set 3. [Related pubchem assays (depositor defined):AID1777, AID1785, AID1786, AID1966, AID2133, AID2136, AID2284, AID2500]. Type of experiment: functional.
Experiment [15] addresses T6, Rac GTPase-activating protein 1 (Homo sapiens, UniProt Q9H0H5).
T6 sequence (Q9H0H5 whole entry): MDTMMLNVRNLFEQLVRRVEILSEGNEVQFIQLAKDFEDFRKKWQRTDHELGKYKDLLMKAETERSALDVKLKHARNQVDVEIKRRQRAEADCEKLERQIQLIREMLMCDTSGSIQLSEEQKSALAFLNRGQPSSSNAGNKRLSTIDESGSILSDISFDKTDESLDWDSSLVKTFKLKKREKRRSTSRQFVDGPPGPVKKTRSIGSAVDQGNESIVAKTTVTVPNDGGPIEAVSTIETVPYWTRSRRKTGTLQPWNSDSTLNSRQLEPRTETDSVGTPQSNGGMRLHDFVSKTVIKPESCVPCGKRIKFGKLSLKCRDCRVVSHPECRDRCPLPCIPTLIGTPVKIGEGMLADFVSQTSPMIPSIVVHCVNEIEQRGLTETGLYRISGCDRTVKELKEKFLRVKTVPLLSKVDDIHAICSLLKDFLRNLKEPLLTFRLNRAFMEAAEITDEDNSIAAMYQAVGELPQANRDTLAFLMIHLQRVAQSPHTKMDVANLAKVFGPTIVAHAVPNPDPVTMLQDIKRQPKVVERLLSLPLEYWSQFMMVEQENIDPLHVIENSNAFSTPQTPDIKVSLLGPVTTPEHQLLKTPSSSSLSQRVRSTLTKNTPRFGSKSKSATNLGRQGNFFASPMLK
Nature of the experiment: blockers of MgcRacGAP-driven Rac1 GTP hydrolysis – biochemical, ADP Hunter fluorescence, primary and confirmatory, confirmation (AID 624330). In kind it is functional.

Experiment [16] addresses Hexokinase-1 (Homo sapiens, UniProt P19367). Description: HK1 enzyme activation by HKDC1 hits – biochemical, selectivity assay for HKDC1 activator project, dose response (AID 504762). Type of experiment: functional.
The target of experiment [17] is Hexokinase HKDC1 (Homo sapiens, UniProt Q2TB90). Description: inhibition of HKDC1 glucose phosphorylation – biochemical, W721R variant, dose response (AID 504729). In kind it is functional.
Experiment [18] addresses Glyceraldehyde-3-phosphate dehydrogenase (Homo sapiens, UniProt P04406).
For experiment [19], the target named is Alkaline phosphatase, placental type (Homo sapiens, UniProt P05187). Description: human placental alkaline phosphatase inhibition – biochemical, luminescence, confirmation (AID 1512). In kind it is functional.

Active and inactive are the calls of the source. Where only a bound is given, the exact number is not on record here.

T2 sequence (P21554 whole entry): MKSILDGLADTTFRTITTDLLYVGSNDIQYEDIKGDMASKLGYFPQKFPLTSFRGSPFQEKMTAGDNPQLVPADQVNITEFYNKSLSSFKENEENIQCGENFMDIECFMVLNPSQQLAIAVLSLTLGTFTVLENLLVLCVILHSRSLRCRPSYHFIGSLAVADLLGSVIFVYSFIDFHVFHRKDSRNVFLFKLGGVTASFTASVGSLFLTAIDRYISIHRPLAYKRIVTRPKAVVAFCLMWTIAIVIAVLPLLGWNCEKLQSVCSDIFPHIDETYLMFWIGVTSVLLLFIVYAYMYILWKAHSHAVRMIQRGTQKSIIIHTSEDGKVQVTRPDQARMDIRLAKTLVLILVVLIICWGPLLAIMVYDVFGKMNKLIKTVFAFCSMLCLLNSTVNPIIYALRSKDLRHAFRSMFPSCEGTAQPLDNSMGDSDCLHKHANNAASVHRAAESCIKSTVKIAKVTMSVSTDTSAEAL
T3 sequence (Q9HC97 whole entry): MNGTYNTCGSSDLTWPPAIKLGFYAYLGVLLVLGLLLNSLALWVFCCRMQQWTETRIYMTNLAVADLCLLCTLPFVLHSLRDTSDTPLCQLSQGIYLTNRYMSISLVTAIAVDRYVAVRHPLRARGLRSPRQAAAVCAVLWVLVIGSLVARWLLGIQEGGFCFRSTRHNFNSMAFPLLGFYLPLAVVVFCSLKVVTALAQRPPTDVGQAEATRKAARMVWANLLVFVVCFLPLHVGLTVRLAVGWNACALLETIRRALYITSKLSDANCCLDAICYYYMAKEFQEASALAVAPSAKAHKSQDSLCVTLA
T5 sequence (P41145 whole entry): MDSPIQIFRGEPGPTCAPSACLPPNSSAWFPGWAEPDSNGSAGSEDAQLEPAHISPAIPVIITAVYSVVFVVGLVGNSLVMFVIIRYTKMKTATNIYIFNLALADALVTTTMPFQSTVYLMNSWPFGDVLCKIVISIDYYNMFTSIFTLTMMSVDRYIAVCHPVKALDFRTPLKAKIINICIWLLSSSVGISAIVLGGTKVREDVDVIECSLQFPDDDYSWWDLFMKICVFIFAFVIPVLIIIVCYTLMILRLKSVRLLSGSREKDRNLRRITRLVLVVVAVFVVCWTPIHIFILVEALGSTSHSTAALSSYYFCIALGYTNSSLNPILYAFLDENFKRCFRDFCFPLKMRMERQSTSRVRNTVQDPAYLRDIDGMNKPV
T4 sequence (P34972 whole entry): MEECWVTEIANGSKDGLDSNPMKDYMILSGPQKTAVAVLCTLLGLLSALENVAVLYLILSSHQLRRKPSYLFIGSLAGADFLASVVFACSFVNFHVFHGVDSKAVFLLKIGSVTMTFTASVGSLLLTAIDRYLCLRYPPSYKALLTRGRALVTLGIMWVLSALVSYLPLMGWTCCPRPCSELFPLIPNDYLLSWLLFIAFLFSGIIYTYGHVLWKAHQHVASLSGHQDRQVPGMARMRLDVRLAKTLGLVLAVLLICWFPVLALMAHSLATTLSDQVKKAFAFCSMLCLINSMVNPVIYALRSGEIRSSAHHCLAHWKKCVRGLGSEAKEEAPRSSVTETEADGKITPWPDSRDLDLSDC
Alkaline phosphatase, placental type, sequence (P05187 whole entry): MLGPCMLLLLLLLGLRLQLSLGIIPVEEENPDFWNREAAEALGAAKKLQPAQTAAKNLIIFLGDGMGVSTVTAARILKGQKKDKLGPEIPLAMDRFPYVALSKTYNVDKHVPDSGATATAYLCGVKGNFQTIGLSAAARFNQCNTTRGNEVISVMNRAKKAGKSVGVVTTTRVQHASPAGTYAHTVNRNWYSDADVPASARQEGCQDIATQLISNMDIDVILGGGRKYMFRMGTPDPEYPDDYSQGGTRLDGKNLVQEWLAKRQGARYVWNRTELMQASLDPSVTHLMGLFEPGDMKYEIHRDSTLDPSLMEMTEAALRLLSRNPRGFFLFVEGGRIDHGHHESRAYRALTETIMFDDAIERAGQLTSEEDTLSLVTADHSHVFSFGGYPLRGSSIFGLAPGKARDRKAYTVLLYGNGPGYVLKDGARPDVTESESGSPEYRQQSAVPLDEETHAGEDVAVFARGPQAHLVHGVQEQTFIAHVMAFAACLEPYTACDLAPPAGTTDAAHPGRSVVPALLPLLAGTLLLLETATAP
Signal transducer and activator of transcription 3, sequence (P40763 whole entry): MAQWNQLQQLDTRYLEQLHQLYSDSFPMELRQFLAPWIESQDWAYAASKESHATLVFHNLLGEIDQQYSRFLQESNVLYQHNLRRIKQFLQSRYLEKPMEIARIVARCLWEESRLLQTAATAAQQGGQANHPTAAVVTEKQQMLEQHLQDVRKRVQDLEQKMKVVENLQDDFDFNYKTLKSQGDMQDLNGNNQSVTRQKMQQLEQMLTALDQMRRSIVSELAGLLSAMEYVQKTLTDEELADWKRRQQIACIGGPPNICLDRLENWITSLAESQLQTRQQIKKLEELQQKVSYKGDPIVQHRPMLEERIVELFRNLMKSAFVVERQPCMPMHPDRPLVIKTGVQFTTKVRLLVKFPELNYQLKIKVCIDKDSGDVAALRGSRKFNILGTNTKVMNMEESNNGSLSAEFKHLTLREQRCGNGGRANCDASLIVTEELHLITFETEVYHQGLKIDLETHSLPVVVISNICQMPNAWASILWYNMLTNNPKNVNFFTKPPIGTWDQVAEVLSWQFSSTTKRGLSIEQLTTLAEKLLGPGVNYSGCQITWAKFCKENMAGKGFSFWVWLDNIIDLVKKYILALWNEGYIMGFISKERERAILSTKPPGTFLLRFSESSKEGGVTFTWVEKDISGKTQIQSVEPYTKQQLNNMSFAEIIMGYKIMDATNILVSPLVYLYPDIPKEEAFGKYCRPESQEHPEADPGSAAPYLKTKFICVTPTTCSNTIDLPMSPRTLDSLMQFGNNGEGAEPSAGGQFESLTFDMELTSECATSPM
Hexokinase HKDC1, sequence (Q2TB90 whole entry): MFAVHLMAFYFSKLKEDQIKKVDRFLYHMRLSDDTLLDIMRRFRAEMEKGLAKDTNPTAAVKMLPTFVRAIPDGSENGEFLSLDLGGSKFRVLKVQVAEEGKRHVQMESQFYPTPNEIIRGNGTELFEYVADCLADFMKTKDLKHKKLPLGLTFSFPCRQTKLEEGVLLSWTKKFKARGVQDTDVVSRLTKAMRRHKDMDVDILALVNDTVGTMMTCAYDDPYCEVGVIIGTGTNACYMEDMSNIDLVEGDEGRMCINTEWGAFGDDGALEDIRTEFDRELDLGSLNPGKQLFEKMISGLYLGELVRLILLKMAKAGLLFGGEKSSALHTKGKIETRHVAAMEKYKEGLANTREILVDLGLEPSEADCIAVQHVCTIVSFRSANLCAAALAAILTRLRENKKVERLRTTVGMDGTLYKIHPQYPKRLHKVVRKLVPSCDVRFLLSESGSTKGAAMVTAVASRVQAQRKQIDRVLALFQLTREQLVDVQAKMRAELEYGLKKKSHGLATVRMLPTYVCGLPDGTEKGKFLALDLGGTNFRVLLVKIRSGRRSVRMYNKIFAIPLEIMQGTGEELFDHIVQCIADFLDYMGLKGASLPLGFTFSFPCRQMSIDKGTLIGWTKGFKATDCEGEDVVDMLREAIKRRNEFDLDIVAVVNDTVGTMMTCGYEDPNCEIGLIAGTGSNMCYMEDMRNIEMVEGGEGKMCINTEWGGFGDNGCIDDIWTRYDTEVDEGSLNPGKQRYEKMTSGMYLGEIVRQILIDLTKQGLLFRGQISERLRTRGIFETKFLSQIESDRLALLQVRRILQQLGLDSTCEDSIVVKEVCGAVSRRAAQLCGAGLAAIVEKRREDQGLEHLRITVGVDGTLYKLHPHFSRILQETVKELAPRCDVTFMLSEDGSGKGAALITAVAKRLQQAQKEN
G-protein coupled receptor 55, sequence (Q9Y2T6 whole entry): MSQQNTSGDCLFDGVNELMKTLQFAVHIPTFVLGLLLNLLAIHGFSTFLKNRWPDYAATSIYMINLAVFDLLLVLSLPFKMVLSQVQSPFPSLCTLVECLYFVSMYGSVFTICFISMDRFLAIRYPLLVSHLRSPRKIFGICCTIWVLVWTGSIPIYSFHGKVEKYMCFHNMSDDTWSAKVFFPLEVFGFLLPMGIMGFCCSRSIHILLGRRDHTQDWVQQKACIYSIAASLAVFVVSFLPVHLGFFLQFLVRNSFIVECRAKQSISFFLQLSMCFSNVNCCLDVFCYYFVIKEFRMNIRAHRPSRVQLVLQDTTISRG
Signal transducer and activator of transcription 1-alpha/beta, sequence (P42224 whole entry): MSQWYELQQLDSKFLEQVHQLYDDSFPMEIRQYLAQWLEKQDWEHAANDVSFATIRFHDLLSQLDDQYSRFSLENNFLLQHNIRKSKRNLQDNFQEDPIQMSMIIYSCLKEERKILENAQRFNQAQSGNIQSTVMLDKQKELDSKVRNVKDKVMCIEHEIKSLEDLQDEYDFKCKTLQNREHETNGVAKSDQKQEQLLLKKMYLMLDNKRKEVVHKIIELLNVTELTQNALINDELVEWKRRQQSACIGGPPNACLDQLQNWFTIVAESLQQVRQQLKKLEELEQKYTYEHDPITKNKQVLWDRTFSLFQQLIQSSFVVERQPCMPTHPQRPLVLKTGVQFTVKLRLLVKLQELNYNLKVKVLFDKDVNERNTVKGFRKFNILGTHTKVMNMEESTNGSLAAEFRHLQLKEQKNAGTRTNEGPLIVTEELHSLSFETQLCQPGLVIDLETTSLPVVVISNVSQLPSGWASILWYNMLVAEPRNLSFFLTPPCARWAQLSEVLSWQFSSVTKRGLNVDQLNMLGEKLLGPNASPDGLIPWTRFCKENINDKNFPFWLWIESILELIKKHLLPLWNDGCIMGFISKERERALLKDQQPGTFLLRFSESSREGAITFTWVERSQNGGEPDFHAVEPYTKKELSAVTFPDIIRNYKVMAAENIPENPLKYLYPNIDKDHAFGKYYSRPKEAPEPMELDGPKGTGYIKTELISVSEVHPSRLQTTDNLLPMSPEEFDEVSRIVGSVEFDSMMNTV

`c1ccc(CC2CCN(c3ncnc4scc(-c5cccs5)c34)CC2)cc1`: the IC50 in experiment [1] was > 55.7 µM (inactive); in experiment [2], 16.7 µM (inactive).
On to `NS(=O)(=O)c1ccc(NC(=S)NC2CCCc3ccccc32)cc1` (centres undefined), for which, in experiment [3], the IC50 is 66.5 µM (active).
For the molecule `Cc1cccc(N2CCN(C(=O)c3cccc(S(=O)(=O)N4CCOCC4)c3)CC2)c1C`, the IC50 in [4], in [7] and in experiment [8] was > 32 µM (inactive) each time. Besides, the EC50 in experiment [5], in experiment [6], in [9] and in experiment [10] was > 32 µM (inactive) throughout.
As to `CC(=O)Oc1ccc(CSc2nnc(-c3ccccn3)n2Cc2ccco2)cc1`, the EC50 in experiment [11] was > 32 µM (inactive); in experiment [12], > 64 µM (inactive); in experiment [13], > 32 µM (inactive); in experiment [14] it was > 20 µM (inactive).
Turning to `O=C(CNC(=O)c1ccc2c(c1)OCCO2)N/N=C/c1ccc(O)cc1O`, the 50% inhibitory concentration (IC50) was 160 µM (active) in experiment [15] and > 80 µM (inactive) in experiment [17]. Further, in experiment [16], the EC50 was > 80 µM (inactive).
As to `CN(C)C(=O)c1cc(-c2ccc(Cl)cc2Cl)n[nH]1`, the IC50 in experiment [18] was > 100 µM (not active); in experiment [19], > 100 µM (inactive).
